pIC50: −log10 of the molar value. Activity calls are given as the source filed them. The calls are words filed in the database; no cut-off is given here.
Species on record: Homo sapiens
Assay: Selectivity ratio for GSK3beta (unknown origin) to CK2A2 (unknown origin)
Conditions: not given

Row | SMILES | Ratio
1 | COc1nc(-c2ccnc(NC(=O)C3CC3)c2)sc1C(N)=O | 10
2 | COc1sc(-c2ccnc(NC(=O)C3CC3)c2)nc1C(N)=O | > 67

System: Mus musculus
Assay: Reduction in pTau396 level in LaFerla 3xTg-C57BL6 mouse at 30 mg/kg, po by ELISA
Type: functional, organism-based
Parameters: dose 30 mg/kg
Conditions: not given

Row | SMILES | inhibition
3 | COc1nc(-c2ccnc(NC(=O)C3CC3)c2)sc1C(N)=O | Active
4 | O=C1NCCc2cc(-c3ccnc(NC(=O)C4CC4)c3)ccc21 | Active

System: not listed separately
Assay: Ratio of brain to plasma in LaFerla 3xTg-C57BL6 mouse at 30 mg/kg, po
Type: ADME, organism-based
Parameters: dose 30 mg/kg, route oral
Conditions: brain and plasma, read-out: BPR

Row | SMILES | Kp
5 | COc1nc(-c2ccnc(NC(=O)C3CC3)c2)sc1C(N)=O | 0.26

Molecular target: Glycogen synthase kinase-3 beta (Homo sapiens, UniProt P49841)
Sequence (P49841 whole entry): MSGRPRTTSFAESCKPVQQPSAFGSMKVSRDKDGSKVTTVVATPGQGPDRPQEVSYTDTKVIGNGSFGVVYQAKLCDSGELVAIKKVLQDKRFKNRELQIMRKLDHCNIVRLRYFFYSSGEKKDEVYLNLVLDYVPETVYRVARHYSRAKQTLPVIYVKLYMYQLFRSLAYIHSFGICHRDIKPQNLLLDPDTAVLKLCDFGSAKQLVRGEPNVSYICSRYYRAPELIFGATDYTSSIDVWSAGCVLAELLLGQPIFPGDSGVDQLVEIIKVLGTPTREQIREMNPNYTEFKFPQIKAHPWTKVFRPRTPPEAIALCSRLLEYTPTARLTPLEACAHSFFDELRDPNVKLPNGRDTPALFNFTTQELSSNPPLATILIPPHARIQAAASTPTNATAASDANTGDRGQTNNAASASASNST
Assay: Inhibition of GSK3beta (unknown origin) activity by competitive binding assay
Conditions: not given

Row | SMILES | pIC50
6 | O=C1NCc2cc(-c3ccnc(NC(=O)C4CC4)c3)ccc21 | 7.96
7 | COc1nc(-c2ccnc(NC(=O)C3CC3)c2)sc1C(N)=O | 8.96
8 | COc1sc(-c2ccnc(NC(=O)C3CC3)c2)nc1C(N)=O | 7.52
9 | CC(C)Oc1nc(-c2ccnc(NC(=O)C3CC3)c2)ncc1C(N)=O | 9.08
10 | O=C1NCCc2cc(-c3ccnc(NC(=O)C4CC4)c3)ccc21 | 8.62
11 | O=C(Nc1cc(-c2ccc3ccncc3c2)ccn1)C1CC1 | 7.13
12 | O=C1CCCc2cc(-c3ccnc(NC(=O)C4CC4)c3)ccc2N1 | 6.14
13 | CC(C)Oc1nc(-c2ccnc(NC(=O)C3CC3)c2)sc1C(N)=O | 9.35
14 | COc1cc(-c2ccnc(NC(=O)C3CC3)c2)cnc1C(N)=O | 8.15
15 | NC(=O)c1ccc(-c2ccnc(NC(=O)C3CC3)c2)cn1 | 7.05
16 | Cc1nc(-c2ccnc(NC(=O)C3CC3)c2)sc1C(N)=O | 7.43
17 | NC(=O)c1ccc(-c2ccnc(NC(=O)C3CC3)c2)nn1 | 6.85
18 | Cn1nc(C(N)=O)cc1-c1ccnc(NC(=O)C2CC2)c1 | 7.62
19 | NC(=O)c1cnc(-c2ccnc(NC(=O)C3CC3)c2)cn1 | 7.52
20 | NC(=O)c1sc(-c2ccnc(NC(=O)C3CC3)c2)nc1OCC1CC1 | 9.54
21 | NC(=O)c1cnc(-c2ccnc(NC(=O)C3CC3)c2)s1 | 7.89
22 | COc1cc(-c2ccnc(NC(=O)C3CC3)c2)ncc1C(N)=O | 7.66
23 | O=C(Nc1cc(-c2ccc3ncccc3c2)ccn1)C1CC1 | 8.12
24 | O=C(Nc1cc(-c2ccc3ccccc3c2)ccn1)C1CC1 | 6.21
25 | NC(=O)c1cnc(-c2ccnc(NC(=O)C3CC3)c2)cc1OCC(F)(F)F | 8.17
26 | O=C1NCCCc2cc(-c3ccnc(NC(=O)C4CC4)c3)ccc21 | 8.62
27 | O=C(Nc1cc(-c2ccc3cccnc3c2)ccn1)C1CC1 | 6.62
28 | COc1nc(-c2ccnc(NC(=O)C3CC3)c2)ncc1C(N)=O | 8.23
29 | NC(=O)c1sc(-c2ccnc(NC(=O)C3CC3)c2)nc1OC1CCC1 | 9.43
30 | O=C1NCCOc2cc(-c3ccnc(NC(=O)C4CC4)c3)ccc21 | 8.33
31 | CC(C)Oc1cc(-c2ccnc(NC(=O)C3CC3)c2)ncc1C(N)=O | 8.36

From ChEMBL document CHEMBL3407347, “Discovery of new acylaminopyridines as GSK-3 inhibitors by a structure guided in-depth exploration of chemical space around a pyrrolopyridinone core” (Bioorg Med Chem Lett, 2015)
